Data on three compounds can be found in patent publication EP0205029A2, “Quinolinecarboxylic acids with an antibacterial activity” (BAYER AG, priority 1985, dated 1986).

Series [1] can be described thus: local tolerability after repeated subcutaneous application. The settings on record: Mäuse, subkutan, 5 Tage 2 x pro Tag, 1 bis 10 % Lösungen, 100 mg/kg bis 300 mg/kg. Type of series: in vivo. As for the experimental part:
(§1) Die erfindungsgemäßen Verbindungen zeigen eine ausgezeichnete lokale Verträglichkeit, z. B, nach subkutaner Applikation, im Gegensatz zu den freien Carbonsäuren. Dazu wurden Mäuse über 5 Tage 2 x pro Tag mit 1 bis 10 % Lösungen der Wirkstoffe subkutan behandelt, entsprechend einer Dosis von 100 mg/kg bis 300 mg/kg. Während der Behandlungsperiode sowie nach Absetzen der Behandlung wurden die Tiere beobachtet. Es zeigte sich, daß die Mäuse, die mit den erfindungsgemäßen Verbindungen, z. […] Somit sind die erfindungsgemäßen Verbindungen lokal deutlich besser verträglich als die entsprechenden freien Carbonsäuren und es können Lösungen im oben genannten Konzentrationsbereich bei guter lokaler Verträglichkeit mehrfach angewendet werden. In einem Mäuseprotektionsversuch (Infektion intraperitoneal, Therapie 30 Minuten nach Infektion durch subkutane Gabe) konnte gezeigt werden, daß die Substanzen nach parenteraler Applikation eine gute protektive Wirkung bei erhöhter lokaler Verträglichkeit des Esters besitzen. Die erfindungsgemäßen Verbindungen sind damit in gleicher Dosis protektiv wirksam wie die deutlich schlechter verträglichen freien Carbonsäuren.

Series [2] is described as follows: mouse protection test (intraperitoneal infection, subcutaneous therapy 30 minutes after infection). The settings on record: sc, Infektion intraperitoneal, Therapie 30 Minuten nach Infektion. In kind it is in vivo, Mäuse. The procedure: as §1

Take `CCOC(=O)c1cn(C2CC2)c2cc(N3CCN(CC)CC3)c(F)cc2c1=O` [Beispiel 1, 1-Cyclopropyl-6-fluor-7-(4-ethyl-1-piperazinyl)-1,4-dihydro-4-oxo-chinolin-3-carbonsäureethylester]: in series [1], the “lokale Verträglichkeit (Merkmale einer lokalen Gewebeschädigung im Bereich der Injektionsstelle)” value is reported as “keine Merkmale einer lokalen Gewebeschädigung”.

As for `CCN1CCN(c2cc3c(cc2F)c(=O)c(C(=O)O)cn3C2CC2)CC1` [Substanz A], in series [2], the ED (80-100) was found to be 2.5 mg/kg. Still for that read-out and setting: the value for `CCOC(=O)c1cn(C2CC2)c2cc(N3CCN(CC)CC3)c(F)cc2c1=O` [Substanz B] was 2.5 mg/kg.
